We go through 1 molecule from patent US20140274995A1, “PARENTERAL CEFTOLOZANE ANTIBIOTIC COMPOSITIONS” (Cubist Pharmaceuticals, Inc., priority 2013, published 2014).

Data set [1] in a line: Comparison between stabilizing reagents, lyophilized ceftolozane samples stored at 60° C. for 7 days, HPLC purity. The format is physicochemical. To be noted: without any stabilizing agent.
Data set [2] in a line: Residual rate of ceftolozane without stabilizing agent after 3 days at 70° C., HPLC. In kind it is physicochemical. To be noted: 100 mg of ceftolozane, no stabilizing agent.
Experimental: The purity of the ceftolozane in a composition comprising 100 mg ceftolozane was also evaluated with no stabilizing agent after 3 days at 70° C. by measuring the residual rate. The residual rate is measured by detecting the amount of ceftolozane in a sample before and after a stability test using HPLC, and determining the percentage of ceftolozane lost during the stability test.

In the case of `Cn1c(N)c(NC(=O)NCCN)c[n+]1CC1=C(C(=O)[O-])N2C(=O)[C@@H](NC(=O)/C(=N\OC(C)(C)C(=O)O)c3nsc(N)n3)[C@H]2SC1` [Ceftolozane, (6R,7R)-3-[(5-amino-4-{[(2-aminoethyl)carbamoyl]amino}-1-methyl-1H-pyrazol-2-ium-2-yl)methyl]-7-({(2Z)-2-(5-amino-1,2,4-thiadiazol-3-yl)-2-[(1-carboxy-1-methylethoxy)imino]acetyl}amino)-8-oxo-5-thia-1-azabicyclo[4.2.0]oct-2-ene-2-carboxylate], the “overall decrease in purity” value in data set [1] is given as 5.88%. The molecule also showed a residual rate in data set [2] of 51.2%.
